Data from patent US9023831B2, “Methods and compositions of inhibiting complement and cellular activation with Dextran Sulfate” (Novelmed Therapeutics, Inc., priority 2007, dated 2015).
Entries after “also recorded” stand apart in the source; their conditions may differ. Like-named read-outs stand apart in the source and are kept apart here.

Key:
Properdin Binding to C3b = Properdin Binding to C3b (Homo sapiens, UniProt P27918); assay: Inhibition of properdin binding to C3b (ELISA); conditions: C3b coated plates
Sequence of Properdin Binding to C3b (P27918 28-469): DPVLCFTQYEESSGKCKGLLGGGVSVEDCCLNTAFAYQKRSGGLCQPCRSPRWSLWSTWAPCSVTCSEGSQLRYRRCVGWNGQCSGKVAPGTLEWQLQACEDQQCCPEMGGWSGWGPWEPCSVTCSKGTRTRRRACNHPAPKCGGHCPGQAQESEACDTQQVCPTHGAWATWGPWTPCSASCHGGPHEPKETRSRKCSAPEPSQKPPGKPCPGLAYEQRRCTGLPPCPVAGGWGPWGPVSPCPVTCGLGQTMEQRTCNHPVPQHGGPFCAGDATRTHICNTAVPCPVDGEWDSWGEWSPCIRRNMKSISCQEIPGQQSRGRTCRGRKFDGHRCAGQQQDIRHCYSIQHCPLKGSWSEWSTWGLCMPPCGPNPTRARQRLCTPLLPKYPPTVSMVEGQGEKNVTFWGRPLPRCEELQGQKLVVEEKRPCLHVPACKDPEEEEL
Description: Methods: Polystyrene microtiter plates were coated with C3b in phosphate buffered saline (PBS) overnight. After aspirating the C3b solution, wells were blocked bovine serum albumin Wells without C3b coating served as background controls. […] Wells were washed PBS and C3b-bound properdin was detected by the addition of a mouse anti-human properdin antibody (Quidel, P#2 monoclonal). After washing the plate with PBS, HRP-conjugated goat anti-mouse antibody (Sigma Chemicals A2304) was added and allowed to incubate for 1 h. The plate was again rinsed thoroughly with PBS, and TMB substrate was added to each well. The data was plotted using Microcal Origin Program.
In a typical assay, polystyrene microtiter plates were coated with C3b (50 μg/50 μl/well, Advanced Research Technologies, San Diego, Calif.) in phosphate buffered saline (PBS) overnight at 4° C. After aspirating the C3b solution, wells were blocked with PBS containing 1% bovine serum albumin (BSA) (Sigma Chemical Company, St. Louis, Mo., Cat. No. A7888) for 2 hours at room temperature. Wells without C3b coating served as background controls. […] C3b-bound properdin was detected by the addition of mouse monoclonal anti-human properdin antibody (detection antibody) (Quidel, San Diego, Calif., anti-human properdin monoclonal antibody P#2, Cat. No. A235) at 1:2000 dilution in blocking solution, which was allowed to incubate for 1 hour at room temperature. […] After incubation for 10 minutes at 25° C., the reaction of TMB was quenched by the addition of 100 μl of phosphoric acid, and the plate was read at 450 nm in a microplate reader (e.g., SPECTRA MAX 190, Molecular Devices, Sunnyvale, Calif.). […]
The ability of a Dextran Sulfate to inhibit C3b-P binding was evaluated by adding varying concentrations of Dextran Sulfate to a constant concentration of properdin (2 nM). The amount of properdin bound to C3b was detected with the antibody detection system described above.

[1] = test system: Thrombin Generation in Citrated Human plasma; assay: Thrombin generation in citrated human plasma (innovin, S2238); assay type: biochemical
Description: FIG. 7 illustrates NM33014 Inhibits Thrombin Generation in Citrated Human plasma: Citrated Human Plasma was mixed with various concentrations of Dextran Sulfate in the presence of constant concentration of S2238 (Diapharma). […] Data was recorded using Soft Max-Pro on Spectramax 190 kinetic spectramax. Data presented is from a representative experiment that was repeated three times.
Citrated human plasma (100 μl) was mixed with various concentrations of Dextran Sulfate in the presence of constant concentration of S2238 (100 μl of 2 μg/ml).

properdin = properdin (Homo sapiens, UniProt P27918); conditions: Dextran Sulfate added in solution along with properdin
Sequence of properdin (P27918 28-469): as above
Description: Methods: Polystyrene microtiter plates were coated with Dextran Sulfate overnight. Wells without Dextran Sulfate coating served as background controls. After removal of the Dextran Sulfate solution, the plates were washed and blocked with 1% BSA in PBS. Properdin solution with and without Dextran Sulfate was added to the appropriate wells. After this incubation, properdin solution was aspirated from the plate and the plate was washed. The wells were then incubated with anti-properdin monoclonal antibody at a 1:2000 dilution in blocking solution to allow detection of Dextran Sulfate-bound properdin. The wells were rinsed and further incubated with peroxidase-conjugated goat anti-mouse IgG followed by another wash step. Dextran Sulfate-bound properdin was detected by the addition of TMB substrate. The reaction of TMB was quenched by the addition of O-phosphoric acid and the plate read at 450 nm.

[2] = test system: platelets (CD62P staining); assay: Platelet activation (CD62P flow cytometry) after tubing loop; assay type: cell-based, human
Description: It was expected that platelet activation would also be inhibited. […] The inhibition of platelet activation was measured using flow cytometry following CD62P staining of activated platelets.
It was expected that platelet activation will also be inhibited. […] The inhibition of platelet activation was measured using flow cytometry following CD62P staining of activated platelets.
While platelets bear C3a receptors, it is not clear how platelets were being activated. In an effort to downregulate platelet activation, we performed an experiment in which Dextran Sulfate was utilized in combination with aspirin. […] These surprising results present Dextran Sulfate as a lead complement inhibitory drug that down regulates both complement and cellular activation in heparinized whole human blood. Shown in FIGS. 10d and 10e are results from this study.
For CD62P labeling of platelets, 100 μl of diluted blood collected from the circuits were immediately incubated with 20 μl of PE-anti-CD62P antibody (Becton Dickinson) for 20 minutes at room temperature in a polypropylene tube, Then the mixture was treated with FACS Lysing Solution as described above. The microcentrifuge tubes were centrifuged at 12000. g for 5 minutes. The platelets were washed in PBS/BSA 01%, fixed in 1% paraformaldehyde and then analyzed as described above. For double labeling to concomitantly identify the platelet population, 5 μl of FITC-anti-CD61 antibody were added for incubation together with PE-anti-CD62P antibody.
(§1) For flow cytometry measurement, the PMN (containing mainly neutrophils) and platelet populations were identified by live gating based on forward- versus side-scatter parameters and specific staining with FITC-anti-CD15 antibody and FITC-anti-CD61 antibody, respectively. The background staining was gated using isotype-matched labeled antibodies. The intensity of expression of CD11b and CD62P was represented by mean fluorescence intensity (MFI).

[3] = test system: Alternative Pathway (AP) Activation in a Rabbit Erythrocyte Assay; assay: Alternative pathway-dependent hemolysis of rabbit erythrocytes in normal human serum; conditions: for inhibition of AP-dependent hemolysis: 10 μg/ml
Description: X axis is time of hemolysis in seconds and Y-axis is scattering at 700 nm. Methods: Normal human serum 10% was incubated with rabbit erythrocytes in AP buffer with and without Dextran Sulfate. Various concentrations of Dextran Sulfate were used ranging from 1 to 60 μg/ml.
The Dextran Sulfate (40,000 molecular weight) was examined in the alternative pathway dependent hemolysis assay. […] Normal human serum, at various concentrations in Gelatin Veronal Buffer (GVB) (Advanced Research Technology) with 5 mM MgCl2 and 10 mM EGTA, was incubated with 37° C. with a fixed number of rabbit erythrocytes (Advanced Research Technology). A progressive decrease in light scatter (due to lysis of intact cells) was measured at 700 nm as a function of time in a temperature-controlled ELISA plate reader. […] The data were recorded and analyzed with a SpectraMax 190 plate reader and SoftMax Pro software.
We evaluated Dextran Sulfate effect in a cellular assay as a means of examining the effects of the Dextran Sulfate on alternative pathway function. Increasing amounts of the Dextran Sulfate were added to 10% human serum that was incubated with rabbit erythrocytes at 37° C.

[4] = test system: C5b-9 Formation in Normal Human Serum; assay: Alternative pathway-dependent C5b-9 (MAC) solid phase ELISA on LPS; assay type: biochemical; conditions: 8% NHS, LPS coated wells
Description: Uncoated wells served as background controls.
Microtiter wells were coated with LPS (2 μg/50 μl per well) in VBS overnight at 4° C. Uncoated wells served as background controls. After aspirating the LPS solution, wells were treated with blocking solution and incubated with various concentrations of normal human serum.

[5] = test system: neutrophils (CD11b expression); assay: Neutrophil activation (CD11b flow cytometry) after tubing loop; assay type: cell-based, human
Description: Same samples of blood following the tubing loop were also subjected to neutrophil specific flow cytometry. […] Similar data was obtained with multiple donors. In the Figure are shown Rotated Control (blood sample in tubing loop), Unrotated controls (samples taken out before tubing loop). Unrotated represents the background controls.
The activation of neutrophils, monocyte and platelets were quantitated by measuring the levels of the cell-surface expression of CD11b and CD62P on neutrophils/monocytes and platelets, respectively. For CD11b labeling of neutrophils, 200 μl of whole blood collected from the circuits were immediately incubated with 20 μl of phycoerythrin (PE)-anti-CD11b antibody (Becton Dickinson, San Jose, Calif.) for 20 minutes at room temperature in a microcentrifuge tube. Then 2 ml of FACS Lysing Solution (Becton Dickinson) was added for 20 minutes at room temperature to lyse red blood cells and to fix leukocytes. The microcentrifuge tubes were centrifuged at 300 g for 5 minutes for leukocytes and 1200 g for platelets. The supernatant was aspirated and the cells resuspended in PBS for washing. The tubes were spun again, the supernatant aspirated, and the cells finally resuspended in 0.5 ml of 1% paraformaldehyde overnight prior to analysis using an BD-LSR flow cytometer (BD Biosciences). For double labeling to concomitantly identify the neutrophil population, 10 μl of fluorescein isothiocyanate (FITC)-anti-CD15 antibody (clone MMA, Becton Dickinson) were added for incubation together with PE-anti-CD11b antibody to stain neutrophils and anti-CD14 (FITC) along with PE-CD11b was used for monocytes.
Neutrophils bear both C3a and C5a receptors. Thus, prevention of C3a/C5a production should have direct effect on CD11b expression. Monocytes have been known to bear the C3a receptors. C3a produced because of complement activation is known to activate monocytes.
as §1

[6] = test system: immune cells infiltrating the synovial fluid; assay: Cellular infiltration into arthritic knee joints of AIA rabbits; conditions: 48-h after last treatment, vs vehicle-treated AIA rabbits
Description: Methods. The numbers of immune cells infiltrating the synovial fluid of the right and left joints was determined by cell counting using a hemocytometer.
Synovial samples were also collected from the right and left knees of the AIA rabbits in this experiment and assessed for immunocyte infiltration 48-h after the last Dextran Sulfate or vehicle treatment. […] Data are presented as mean number of cells±SEM for each rabbit (N of 5 per treatment group, Stats: repeated measure ANOVA with Bonferoni Post-hoc test, *p<0.05).

[7] = test system: Complement Activity in Antigen-Induced Arthritic Rabbit; assay: Complement activity in antigen-induced arthritic rabbits (C3c assay); conditions: 60 mg/Kg i.v.; for inhibition of complement activation in vivo: ten minutes after treatment, vs vehicle-treated AIA rabbits
Description: METHODS: After the intra-articular ovalbumin injection to induce arthritis, disease pathology developed for seven days prior to the collection of a blood sample to determine complement activation levels and the administration of Dextran Sulfate treatment. Blood samples were drawn prior to all treatments with Dextran Sulfate to establish baseline values and pre-treatment complement activation levels. Dextran Sulfate (60 mg/Kg) was then injected via the marginal vein every day over a 3 day period. Ten minutes after treatment with Dextran Sulfate a second 1-ml blood sample from the ear to assess complement activation shortly after the treatment. Complement activation was assessed using the C3c assay described in methods.

[8] = test system: sC5b-9 in Normal Heparinized Whole Human Blood; assay: sC5b-9 ELISA after tubing loop model of cardiopulmonary bypass; conditions: for inhibition of sC5b-9 formation / complement activity in whole blood / inhibition of sC5b-9 formation: 2 hour tubing loop rotation
Description: An aliquot of the plasma following the 2 hour tubing loop rotation in bypass was evaluated for sC5b-9 using ELISA kit from Quidel Corporation.
Preparation of Tubing Loops: Tubing loops (PVC, cat # . . . VWR Scientific) were prepared by cutting a piece of polyvinyl tubing and connecting the ends of the tubing with a piece of silicone plug. Blood was drawn using 16 gauge needled from fasting healthy donors. The blood volume of 45 was drawn into a 50 ml polypropylene tube containing a final concentration of 5 units of heparin per ml of blood. The blood was diluted with 35 ml plasmalyte. The diluted blood (2 ml) was filled in each tubing loop. Duplicate tubing loops were prepared for each treatment. Blood samples were prepared as follows; no treatment, treated with various concentrations of Dextran Sulfate.
(2) Tubing Loop Operation and Sampling: The concentration of Dextran Sulfate was chosen based upon in vitro assay and the concentration of plasma. Concentrations of Dextran Sulfate in range of 800 μg/ml, 400 μg/ml, 200 μg/ml, 100 μg/ml, and 40 μg/ml. Prior to the addition of the untreated and treated blood to the extracorporeal circuit, a blood sample was taken from the stock of diluted blood and is designated baseline control. At that time, various concentrations of Dextran Sulfate in blood will be filled into the tubing loop. Following a 2 hours rotation at 37°, tubing loop samples were transferred to 2 ml polypropylene tubes and plasma samples were prepared by immediate centrifugation at 2,000 g. […] A number of controls were put into place. From the donor we obtained serum, heparinized whole blood plasma, unrotated controls, rotated controls, and Dextran Sulfate treated samples.
Plasma aliquots for measuring sC5b-9 in ELISA. Aliquots were appropriately diluted for the measurements of sC5b-9 complex in plasma.

## Dextran Sulfate [NM3014]
Properdin Binding to C3b
  inhibition of properdin binding to C3b: dose-dependent and complete inhibition
Properdin Binding to C3b; listed as Dextran Sulfate
  inhibition of properdin binding to C3b: dose-dependent inhibition
Properdin Binding to C3b; human serum containing nearly 2-5 nM properdin
  IC50 of inhibition of properdin binding to C3b: ~50 mg/L
[1]; 10 μg/ml
  effect on coagulation (thrombin generation): partial effect
[1]; 30 μg/ml
  effect on coagulation (thrombin generation): inhibit coagulation
[1]; 60 μg/ml
  effect on coagulation (thrombin generation): inhibit coagulation
properdin
  inhibition of properdin binding to substrate-bound Dextran Sulfate: inhibited
properdin; listed as Dextran Sulfate
  inhibition of properdin binding to substrate-bound Dextran Sulfate: dose-dependent inhibition
[2]; 40 μg/ml, above control levels
  platelet activation: activates platelet
[2]; 100 μg/ml, above control levels
  platelet activation: activates platelet
[2]; treated samples compared to untreated controls, concentration not stated
  platelet activation: increased CD62P staining
[2]; treated samples compared to untreated controls, concentration not stated, listed as Dextran Sulfate
  platelet activation: activates platelets
[3]; 10% human serum
  inhibition of AP-dependent hemolysis: inhibits hemolysis
[3]; 10% human serum, listed as Dextran Sulfate
  inhibition of AP-dependent hemolysis: caused inhibition
[3]; 30 μg/ml, 10% human serum
  inhibition of complement AP (hemolysis): Total inhibition
[3]; increasing concentrations, human serum
  inhibition of erythrocyte lysis / AP function: completely blocking MAC-mediated cellular destruction; also recorded: full inhibition
[4]
  inhibition of C5b-9 (MAC) formation: Inhibits C5b-9 Formation
[4]; listed as Dextran Sulfate
  inhibition of C5b-9 (MAC) formation: completely prevented
[5]; 40 μg/ml
  inhibition of neutrophil activation: no effect
[5]; 40 μg/ml, listed as Dextran Sulfate
  inhibition of neutrophil activation: No inhibition
[5]; 800 to 100 μg/ml
  inhibition of neutrophil activation: inhibited; also recorded: prevents neutrophil activation
[5]; 800 to 100 μg/ml, listed as Dextran Sulfate
  inhibition of neutrophil activation: inhibits neutrophil activation
[6]
  immunocyte infiltration into arthritic knee joints: reduced
[6]; listed as Dextran Sulfate
  immunocyte infiltration into arthritic knee joints: significant decrease
[7]; 24 hour later
  inhibition of AP activity in vivo: no inhibition
[7]
  inhibition of complement activation in vivo: complete inhibition
[7]; listed as Dextran Sulfate
  inhibition of complement activation in vivo: completely blocked
[8]; 40 μg/ml
  inhibition of sC5b-9 formation / complement activity in whole blood: no inhibition; also recorded: does not inhibit complement activity
[8]; 100 μg/ml
  inhibition of sC5b-9 formation / complement activity in whole blood: complete inhibition; also recorded: inhibits complement activity; also recorded: inhibition of complement activity
[8]; 400 μg/ml
  inhibition of sC5b-9 formation: complete inhibition
[8]; 800 μg/ml
  inhibition of sC5b-9 formation: complete inhibition
[8]; all doses up to 100 μg/ml
  inhibition of sC5b-9 production: completely inhibited
